In publication PMC2888773 (Cellular microbiology, 2010):

Molecular target: Ov-CF-1 (cathepsin F) (Opisthorchis viverrini, UniProt Q5PXS3)
Assay: fluorogenic release of NHMec
Format: biochemical
Settings: autoactivation at pH 4.5, 37 °C, 1 mM DTT, 1 mM EDTA

In the case of Cc1cc(=O)oc2cc(NC(=O)[C@H](CCCNC(=N)N)NC(=O)[C@H](CC(C)C)NC(=O)OCc3ccccc3)ccc12 [Z-Leu-Arg-NHMec], the “fluorogenic release of NHMec (ex 380 / em 460 nm)” value is reported as “The rate of hydrolysis of Z-Leu-Arg-NHMec”.
